Values quoted from earlier work as cited in US6486128B1, “Method of using emamectin to treat fish parasites” (Schering-Plough Veterinary Corporation, priority 1999, dated 2002).

Columns and labels:
[1] = system: sea lice; settings: commonly adopted dose rate of 25 μg kg^−1 biomass twice weekly; cited from earlier work
[2] = orally administered; cited from earlier work

22,23-dihydroavermectin B1 [ivermectin]
control of sea lice [1]: some control
levels found to be toxic [2]: greater than 25 μg kg^−1 biomass twice weekly
